For 9 compounds, MIC, inhibition and IC50 results are on record in ChEMBL document CHEMBL4616637, “Proximicins F and G and Diproximicin A: Aminofurans from the Marine-Derived Verrucosispora sp. SCSIO 40062 by Overexpression of PPtase Genes” (J Nat Prod, 2020).

Values after ≈ are worked out from the molar mass of the structure shown. Active and inactive are the calls of the source. The calls are words filed in the database; no cut-off is given here.

Test [1] concerns Staphylococcus aureus. In words: Antibacterial activity against Staphylococcus aureus ATCC 29213 by CLSI based susceptibility test method. Format: functional.
Test [2] relates to Staphylococcus aureus. In words: Antibacterial activity against methicillin-resistant Staphylococcus aureus shhsA1 by CLSI based susceptibility test method. In kind it is functional.
For another test, the system named is Bacillus subtilis. Kind of test: Antibacterial activity against Bacillus subtilis 1064 by CLSI based susceptibility test method. In kind it is functional.
In the next test the test system is Micrococcus luteus. Kind of test: Antibacterial activity against Micrococcus luteus SCSIO ML01 by CLSI based susceptibility test method. In kind it is functional.
The species named for the next test is Homo sapiens. Kind of test: Inhibition of alpha-glucosidase (unknown origin) at 20 uM using pNPG as substrate preincubated for 15 mins followed by substrate addition and measured after 15 mins.
The target of test [3] is T1, Tyrosinase (Homo sapiens) (UniProt P14679).
T1 sequence (whole entry): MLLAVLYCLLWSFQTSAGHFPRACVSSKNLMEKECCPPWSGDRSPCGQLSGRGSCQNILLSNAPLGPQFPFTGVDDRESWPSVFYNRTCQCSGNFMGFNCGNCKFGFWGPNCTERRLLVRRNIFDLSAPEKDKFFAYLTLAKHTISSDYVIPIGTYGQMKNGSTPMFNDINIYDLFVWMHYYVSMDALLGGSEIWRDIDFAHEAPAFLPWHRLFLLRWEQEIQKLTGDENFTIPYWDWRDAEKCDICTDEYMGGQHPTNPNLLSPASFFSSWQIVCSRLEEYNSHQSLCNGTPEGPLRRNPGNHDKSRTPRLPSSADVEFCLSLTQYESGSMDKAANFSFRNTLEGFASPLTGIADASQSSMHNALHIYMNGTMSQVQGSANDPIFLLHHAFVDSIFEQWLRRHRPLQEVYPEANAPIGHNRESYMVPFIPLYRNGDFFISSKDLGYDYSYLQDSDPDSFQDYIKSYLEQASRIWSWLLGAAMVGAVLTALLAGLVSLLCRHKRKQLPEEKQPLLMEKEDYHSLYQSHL
Kind of test: Inhibition of tyrosinase (unknown origin) at 20 uM using L-DOPA as substrate.

In test [4] the target is Acetylcholinesterase (Electrophorus electricus) (UniProt O42275). Kind of test: Inhibition of electric eel AChE at 20 uM using acetylthiocholine iodide as substrate incubated for 6 mins by Ellman's method.
The next test concerns SF-268. In words: Cytotoxicity against human SF268 cells assessed as reduction in cell viability after 48 hrs by SRB assay. To be noted: SF-268, 48 h. In kind it is functional, cell-based.
The subject of the next test is MCF7. Kind of test: Cytotoxicity against human MCF7 cells assessed as reduction in cell viability after 48 hrs by SRB assay. In kind it is functional, cell-based. To be noted: MCF7, 48 h.
The next test concerns HepG2. Kind of test: Cytotoxicity against human HepG2 cells assessed as reduction in cell viability after 48 hrs by SRB assay. Conditions: HepG2, 48 h. In kind it is functional, cell-based.
For a further test, the system named is A549. In words: Cytotoxicity against human A549 cells assessed as reduction in cell viability after 48 hrs by SRB assay. In kind it is functional, cell-based. Conditions: A549, 48 h.

Acetylcholinesterase (Electrophorus electricus), sequence (O42275 24-633 limits assumed): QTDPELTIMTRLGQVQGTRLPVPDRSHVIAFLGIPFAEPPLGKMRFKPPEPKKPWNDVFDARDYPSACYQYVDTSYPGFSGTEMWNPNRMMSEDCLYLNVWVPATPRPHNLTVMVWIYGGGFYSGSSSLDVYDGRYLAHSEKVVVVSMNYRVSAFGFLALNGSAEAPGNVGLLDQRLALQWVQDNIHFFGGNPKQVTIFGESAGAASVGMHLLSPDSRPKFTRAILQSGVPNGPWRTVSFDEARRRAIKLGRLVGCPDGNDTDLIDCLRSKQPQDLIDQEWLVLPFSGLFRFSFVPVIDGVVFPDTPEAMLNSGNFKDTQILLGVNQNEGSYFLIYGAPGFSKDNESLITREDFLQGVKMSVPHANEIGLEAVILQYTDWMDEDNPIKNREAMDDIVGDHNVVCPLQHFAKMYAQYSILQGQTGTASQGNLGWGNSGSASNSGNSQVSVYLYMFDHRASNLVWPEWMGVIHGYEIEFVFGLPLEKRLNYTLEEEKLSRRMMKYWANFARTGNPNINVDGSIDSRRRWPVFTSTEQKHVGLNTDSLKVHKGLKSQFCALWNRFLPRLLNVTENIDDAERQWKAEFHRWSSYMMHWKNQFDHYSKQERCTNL

`COC(=O)Nc1coc(C(=O)Nc2coc(C(=O)NCCc3ccc(O)cc3)c2)c1` [PROXIMICIN B]: the MIC in the test with Staphylococcus aureus [1] was 16 µg/mL (≈ 38.7 µM); against Staphylococcus aureus [2], 16 µg/mL (≈ 38.7 µM); in the test with Bacillus subtilis, 8 µg/mL (≈ 19.4 µM); in the test with Micrococcus luteus, greater than 64 µg/mL. Moreover, the inhibition entry (in the test filed under Homo sapiens; in test [3]; in [4]) was “inactive” throughout. In addition, the IC50 with SF-268, in the test with MCF7, in the test on HepG2 and in the test with A549 was greater than 10 µM throughout.
In the case of `CC1(C)S[C@@H]2[C@H](NC(=O)[C@H](N)c3ccccc3)C(=O)N2[C@H]1C(=O)O` [AMPICILLIN], the MIC was 0.25 µg/mL (≈ 0.715 µM) against Staphylococcus aureus [1], greater than 64 µg/mL with Staphylococcus aureus [2], 0.25 µg/mL (≈ 0.715 µM) against Bacillus subtilis and 0.5 µg/mL (≈ 1.43 µM) against Micrococcus luteus.
With `CN[C@H](CC(C)C)C(=O)N[C@H]1C(=O)N[C@@H](CC(N)=O)C(=O)N[C@H]2C(=O)N[C@H]3C(=O)N[C@H](C(=O)N[C@H](C(=O)O)c4cc(O)cc(O)c4-c4cc3ccc4O)[C@H](O)c3ccc(c(Cl)c3)Oc3cc2cc(c3O[C@@H]2O[C@H](CO)[C@@H](O)[C@H](O)[C@H]2O[C@H]2C[C@](C)(N)[C@H](O)[C@H](C)O2)Oc2ccc(cc2Cl)[C@H]1O` [VANCOMYCIN], the MIC amounted to 0.5 µg/mL (≈ 0.345 µM) in the test with Bacillus subtilis and 0.25 µg/mL (≈ 0.173 µM) with Micrococcus luteus.
Regarding `COC(=O)Nc1coc(C(=O)Nc2coc(C(=O)NCCc3ccccc3)c2)c1`, the MIC is greater than 64 µg/mL against Staphylococcus aureus [1], greater than 64 µg/mL against Staphylococcus aureus [2], 32 µg/mL (≈ 80.5 µM) against Bacillus subtilis and greater than 64 µg/mL with Micrococcus luteus. For the same compound, the inhibition entry (in the test filed under Homo sapiens; in test [3]; in [4]) was “inactive” each time.
On to `C[S+](C)[O-]` [DIMETHYL SULFOXIDE], for which the MIC against Staphylococcus aureus [1], against Staphylococcus aureus [2], against Bacillus subtilis and in the test with Micrococcus luteus was greater than 64 µg/mL in each case.
As to `CNC(=O)c1cc(NC(=O)c2cc(NC(=O)OC)co2)co1`, the MIC with Staphylococcus aureus [1], in the test on Staphylococcus aureus [2], against Bacillus subtilis and in the test with Micrococcus luteus was greater than 64 µg/mL in each case. The inhibition entry (in the test listed under Homo sapiens; in test [3]; in test [4]) was “inactive” in each case. The IC50 with SF-268, with MCF7, in the test on HepG2 and with A549 was greater than 10 µM in each case.
Turning to `COC(=O)Nc1coc(C(=O)Nc2coc(C(=O)NCCCCCNC(=O)c3cc(NC(=O)c4cc(NC(=O)OC)co4)co3)c2)c1`, the MIC with Staphylococcus aureus [1], against Staphylococcus aureus [2], in the test on Bacillus subtilis and in the test with Micrococcus luteus was greater than 64 µg/mL each time. Besides, the inhibition entry (in the test listed under Homo sapiens; in test [3]; in [4]) was “inactive” throughout. In addition, the IC50 with SF-268, in the test on MCF7, in the test with HepG2 and in the test with A549 was greater than 10 µM in each case.
Take `COc1cc(Cc2cnc(N)nc2N)cc(OC)c1OC` [TRIMETHOPRIM]: the MIC against Staphylococcus aureus [1] is 2 µg/mL (≈ 6.89 µM); with Staphylococcus aureus [2] it was greater than 64 µg/mL; in the test with Bacillus subtilis it was 0.25 µg/mL (≈ 0.861 µM); against Micrococcus luteus it was 2 µg/mL (≈ 6.89 µM).
With `COC(=O)Nc1coc(C(=O)Nc2coc(C(=O)NCCc3c[nH]c4ccccc34)c2)c1` [PROXIMICIN C], the MIC against Staphylococcus aureus [1], in the test with Staphylococcus aureus [2], in the test with Bacillus subtilis and in the test with Micrococcus luteus was greater than 64 µg/mL each time. For the same compound, the inhibition result (in the test filed under Homo sapiens; in [3]; in test [4]) was “inactive” each time. Besides, the IC50 with SF-268, in the test on MCF7, in the test with HepG2 and in the test on A549 was greater than 10 µM throughout.
